According to patent publication US7253149B2, “Compounds and methods for modulating cell-adhesion mediated drug resistance” (University of South Florida, priority 2000, dated 2007):
Where two headings read alike, the source gives them in different places. Marks after values point to notes of the source that are not given here. Where no end group is shown, it is not given here. [ ]: non-standard residue; d: D form.

What was measured:
K562 cells [1] = test: MTT cytotoxicity assay, FN adhered vs suspension K562 cells; assay type: cell-based
Experimental: Plastic 96-well Immunosorp plates (Nunc, Denmark) are coated with 50 μl (40 μg/ml) FN (Life Technologies) or BSA overnight. Cells are washed once and resuspended in serum-free RPMI 1640, then 2×10^4 (K562) cells are added to each FN coated well. 8×10^3 (K562) cells are added to BSA coated wells. Cells are incubated for 2 hours at 37° C., washed with serum free media, and put back into serum-containing media. Following 24 hours in a tissue culture incubator, drug or vehicle control is added to each well for 90 minutes, media is removed and replaced by drug-free media for 96 hours. In some experiments, the drug is allowed to remain in each well for 96 hours. 50 μl 3-[4,5-Dimethylthiazol-2-yl]-2,5-diphenyltetrazolium bromide;Thiazolyl blue (MTT dye) (Sigma) is added to each well for 4 hours, plates are centrifuged and each well aspirated. Dye is solubilized with 100 μl DMSO and plates are read at 540 nm on an automated microtiter plate reader. A blank well containing only medium and drug is also run as a control in all experiments. IC50 values are calculated by linear regression analysis of percent survival vs. drug concentration.
The MTT assay is used to detect differences in the drug sensitivity of FN adhered vs. suspension-cultured cells following a 90 minutes or 96 hours (continuous) exposure to either mitoxantrone or melphalan (L-phenylalanine mustard or LPAM). After a 96 hour period in a cell incubator, cell survival is determined by the ability of viable cells to reduce MTT dye to formazan. IC50 values are derived through linear regression of the log-linear dose-response plots for each cell line to each drug. Student's T-test is used to analyze differences in drug response using data collected from at least three different experiments. FIGS. 8A and 8B depict representative continuous exposure experiments using mitoxantrone and LPAM, respectively.

K562 cells [2] = test: Adhesion of K562 cells to FN in presence of AG957; assay type: cell-based; conditions: concentrations of inhibitor used in cytotoxicity assays
Experimental: Cellular adhesion to FN is determined.
The BCR/ABL kinase is believed to be critical to the survival of CML cells through its effects on a number of signal transduction pathways. Inhibitors of this fusion protein show promise as apoptosis-inducing drugs in CML cells. BCR/ABL inhibition by relatively high doses of the tyrphostin AG957 can have negative effects on FN adhesion. At the concentrations of inhibitor used in cytotoxicity assays, the adhesion of K562 cells to FN is not affected by more than 20–40 percent.

[3] = tested on: BCR/ABL-associated tyrosine kinase activity; test: Anti-phosphotyrosine immunoblotting of AG957 treated K562 cells; conditions: 20 μM AG957, four hours
K562 cells [4] = assay type: cell-based
8226/S myeloma cells [5] = test: MTT cytotoxicity assay, FN-adhered vs non-adhered 8226/S cells; assay type: cell-based, human; conditions: for IC50: Homo sapiens
8226/S myeloma cells [6] = test: Annexin V apoptotic analysis, FN-adhered vs non-adhered 8226/S cells; assay type: cell-based, human; conditions: 50 uM melphalan, 24 hours
[7] = tested on: K562/pcDNA3.1 and K562/VLA-4 cells; test: Annexin V apoptosis analysis of α4 and empty vector transfectants adhered to FN with blocking antibodies; assay type: cell-based; conditions: for level of cytoprotection in comparison to drug treated suspension cells: 100 μM LPAM 90 minutes, 24 hours; for protection against melphalan-induced apoptosis: α5 blocking antibody prior to adhesion
8226/S = assay type: cell-based, human
fibronectin = test: cell-based or functional assay
U937 cells = test: Microtiter adhesion assay, adhesion of U937 cells to fibronectin; assay type: cell-based; conditions: 5 μg/ml to 80 μg/ml, FIG. 26
[8] = target: integrin β7 subunit (human) (UniProt P26010); test: flow cytometry (FACS) on 8226/S cells, FITC-conjugated secondary antibody
[9] = target: integrin β7 subunit (human) (UniProt P26010); test: flow cytometry (FACS) on 8226/LR5 cells, FITC-conjugated secondary antibody
[10] = target: integrin β7 subunit (human) (UniProt P26010); test: flow cytometry (FACS) on 8226/DOX6 cells, FITC-conjugated secondary antibody
[11] = target: VLA-5 (α5β1 integrin) (human) (UniProt P08648); test: cell-based or functional assay
[12] = target: integrin α5 subunit (CDw49e) (human) (UniProt P08648); test: flow cytometry (FACS) on 8226/S cells, FITC-conjugated secondary antibody
[13] = target: integrin α5 subunit (CDw49e) (human) (UniProt P08648); test: flow cytometry (FACS) on 8226/LR5 cells, FITC-conjugated secondary antibody
[14] = target: integrin α5 subunit (CDw49e) (human) (UniProt P08648); test: flow cytometry (FACS) on 8226/DOX6 cells, FITC-conjugated secondary antibody
[15] = target: integrin α4 subunit (CDw49d) (human) (UniProt P13612); test: flow cytometry (FACS) on 8226/S cells, FITC-conjugated secondary antibody
[16] = target: integrin α4 subunit (CDw49d) (human) (UniProt P13612); test: flow cytometry (FACS) on 8226/LR5 cells, FITC-conjugated secondary antibody
[17] = target: integrin α4 subunit (CDw49d) (human) (UniProt P13612); test: flow cytometry (FACS) on 8226/DOX6 cells, FITC-conjugated secondary antibody

Sequence of UniProt P26010 (P26010 20-798): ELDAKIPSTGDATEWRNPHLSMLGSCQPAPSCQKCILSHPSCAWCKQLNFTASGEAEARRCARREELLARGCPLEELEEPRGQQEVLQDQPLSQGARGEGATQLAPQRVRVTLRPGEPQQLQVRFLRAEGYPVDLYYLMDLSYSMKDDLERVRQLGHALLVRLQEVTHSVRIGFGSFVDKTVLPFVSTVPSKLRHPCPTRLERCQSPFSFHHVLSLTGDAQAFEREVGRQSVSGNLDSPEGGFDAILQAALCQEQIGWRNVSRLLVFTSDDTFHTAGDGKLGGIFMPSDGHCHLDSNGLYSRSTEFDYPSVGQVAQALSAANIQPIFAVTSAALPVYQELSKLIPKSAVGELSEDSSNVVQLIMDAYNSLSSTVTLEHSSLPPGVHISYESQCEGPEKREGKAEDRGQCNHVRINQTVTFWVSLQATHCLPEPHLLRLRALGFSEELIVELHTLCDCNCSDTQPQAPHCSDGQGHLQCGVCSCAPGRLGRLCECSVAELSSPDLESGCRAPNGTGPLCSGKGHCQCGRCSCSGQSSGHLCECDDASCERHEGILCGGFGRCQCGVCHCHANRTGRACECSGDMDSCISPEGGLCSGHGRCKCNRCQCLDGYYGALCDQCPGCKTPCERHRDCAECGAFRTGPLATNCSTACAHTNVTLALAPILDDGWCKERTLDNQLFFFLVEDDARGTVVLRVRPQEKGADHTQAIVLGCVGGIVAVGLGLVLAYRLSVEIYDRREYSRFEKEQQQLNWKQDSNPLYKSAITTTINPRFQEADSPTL

## COC(=O)c1ccc(NCc2cc(O)ccc2O)cc1 [AG957]
K562 cells [1]; AG957 for 96 hours
  fold resistance of FN adhered cells over suspension cells: 3.6
K562 cells [1]; AG957 for 96 hours, three independent experiments, read-out: mean IC50 FN adhered cells
  IC50: 12.9 µM
K562 cells [1]; AG957 for 96 hours, three independent experiments, read-out: mean IC50 suspension grown cells
  IC50: 3.6 µM
K562 cells [2]
  effect on adhesion of K562 cells to FN: 20–40%
[3]
  BCR/ABL associated tyrosine phosphorylation: completely abrogated

## Nc1ccn([C@@H]2O[C@H](CO)[C@@H](O)[C@@H]2O)c(=O)n1 [Ara-C]
K562 cells [4]
  % Control death: 54.9* %
  FN: mean death: 6.2 ± 1.6
  Suspension: mean death: 11.3 ± 5.5

## N[C@@H](Cc1ccc(N(CCCl)CCCl)cc1)C(=O)O [LPAM, L-phenylalanine nitrogen mustard]
8226/S myeloma cells [5]; read-out: mean IC50 value for FN-adhered cells
  IC50: 48 µM
8226/S myeloma cells [5]; read-out: mean IC50 value for cells grown on BSA
  IC50: 30 µM
8226/S myeloma cells [5]; n=3
  mean difference FN-adhered vs BSA: 1.7
8226/S myeloma cells [6]
  percentage of apoptotic cells, FN-adhered: 16.53%
  percentage of apoptotic cells, non-adhered: 21.5%
K562 cells [1]; Homo sapiens, K562, 1.5 h, 90 min. exposure, FN adhered, read-out: Fibronectin mean IC50
  IC50: 190 µM
K562 cells [1]; Homo sapiens, K562, 1.5 h, 90 min. exposure, read-out: Suspension mean IC50
  IC50: 29.3 µM
K562 cells [1]; Homo sapiens, K562, 1.5 h, 90 minutes exposure, text b188, read-out: mean IC50 suspension (printed without exponent and unit)
  IC50: 29.3 µM
K562 cells [1]; Homo sapiens, K562, continuous (96 hours) exposure, FN adhered, read-out: Fibronectin mean IC50
  IC50: 57.3 µM
K562 cells [1]; Homo sapiens, K562, continuous (96 hours) exposure, read-out: Suspension mean IC50
  IC50: 25.5 µM
K562 cells [1]; continuous exposure
  Fold resistance FN adhered vs suspension: 2.25 fold
K562 cells [4]; 100 μM, 1 hr
  FN: mean death: 11.0 ± 8.3
  Suspension: mean death: 37.5 ± 24.0
K562 cells [4]; 100 μM, 1 hr, FN vs suspension
  % Control death: 29.3* %
K562 cells [4]; 100 μM, cont. exp.
  FN: mean death: 23.3 ± 6.4
  Suspension: mean death: 39.8 ± 3.2
K562 cells [4]; 100 μM, cont. exp., FN vs suspension
  % Control death: 58.5* %
[7]; K562/VLA-4 adhering through both α4 and α5
  level of cytoprotection in comparison to drug treated suspension cells: 30.0±1.5%
[7]; K562/pcDNA3.1 adhered through α5 alone
  level of cytoprotection in comparison to drug treated suspension cells: 29.9±5.3%
[7]; K562/VLA-4
  protection against melphalan-induced apoptosis: 20.6±1.9%
[7]; K562/pcDNA3.1
  protection against melphalan-induced apoptosis: 0±11.1%
8226/S
  effect of acute exposure on cell surface integrin expression: no immediate effects

## CC[C@]1(O)C[C@H]2CN(CCc3c([nH]c4ccccc34)[C@@](C(=O)OC)(c3cc4c(cc3OC)N(C=O)[C@H]3[C@@](O)(C(=O)OC)[C@H](OC(C)=O)[C@]5(CC)C=CCN6CC[C@]43[C@@H]65)C2)C1 [VCR, vincristine]
K562 cells [4]; continuous exposure
  FN-mediated protection against the drug: not significant

## COc1cccc2c1C(=O)c1c(O)c3c(c(O)c1C2=O)C[C@@](O)(C(=O)CO)C[C@@H]3O[C@H]1C[C@H](N)[C@H](O)[C@H](C)O1 [doxorubicin, Doxorubicin]
8226/S; wide range of concentrations, 1–48 hours
  effect of acute exposure on cell surface integrin expression: no immediate effects

## O=C1c2c(O)ccc(O)c2C(=O)c2c(NCCNCCO)ccc(NCCNCCO)c21 [mitoxantrone]
K562 cells [1]; 90 min. exposure
  Fold resistance FN adhered vs suspension: approximately 3.7 fold
K562 cells [1]; continuous exposure
  Fold resistance FN adhered vs suspension: 6.8 fold

## VLA-4 (α4β1 integrin, Very Late Activation Antigen 4) (from UniProt P13612 34-1032; P05556 21-798)
fibronectin
  level of cytoprotection against melphalan-induced apoptosis in comparison to drug treated suspension cells (Annexin V, flow cytometry): 20.6 percent

## VLA-5 (α5β1 integrin) (from UniProt P08648 42-1049; P05556 21-798) (receptor)
fibronectin
  level of cytoprotection against melphalan-induced apoptosis in comparison to drug treated suspension cells (Annexin V, flow cytometry): 29.9 percent

## kmviywkag ([dK][dM][dV][dI][dY][dW][dK][dA]G) [RZ-3, D-amino acid peptide Lys-Met-Val-Ile-Tyr-Trp-Lys-Ala-Gly, each amino acid a D-amino acid]
U937 cells
  effect on adhesion of U937 cells to FN: effective in preventing FN adhesion

## monoclonal antibody FIB504 (anti-β7)
[8]
  mean fluorescence intensity: 5.72
[9]
  mean fluorescence intensity: 40.2
[10]
  mean fluorescence intensity: 18.5

## monoclonal antibody P1D6 (anti-CDw49e, α5)
[11]
  level of cytoprotection against melphalan-induced apoptosis in comparison to drug treated suspension cells (Annexin V, flow cytometry): 0 percent
[12]
  mean fluorescence intensity: 14.2
[13]
  mean fluorescence intensity: 11.9
[14]
  mean fluorescence intensity: 7.32

## monoclonal antibody P4G9 (anti-CDw49d, α4)
[15]
  mean fluorescence intensity: 10.4
[16]
  mean fluorescence intensity: 46.5
[17]
  mean fluorescence intensity: 69
